# “And” between values parts separate entries of the source, which are not always exact repeats. Identical values can stand only once. After the bases stand the sugars from the 5' end (letter, count) and the backbone: PS all phosphorothioate, else s phosphorothioate and o phosphodiester by linkage. Methylation of C is not given here. e = 2'-O-(2-methoxyethyl) (MOE); k = constrained ethyl (cEt); d = 2'-deoxy (DNA)
# Molecular target: SOD1
# Conditions: ASO
sequence,measurement,setting,value
"AGTGTTTAATGTTTATC (sugars ekekddddddddeeeee, linkages s1 o2 s9 o2 s2)",target mRNA inhibition,"A431, 0.062 µM",24%
same,target mRNA inhibition,"A431, 0.185 µM",37%
same,target mRNA inhibition,"A431, 0.556 µM",57%
same,target mRNA inhibition,"A431, 1.667 µM",77%
same,target mRNA inhibition,"A431, 5 µM",81%
same,target mRNA inhibition,"A431, 15 µM",86%
same,target mRNA inhibition,"SH-SY5Y, 0.062 µM",3%
same,target mRNA inhibition,"SH-SY5Y, 0.185 µM",6%
same,target mRNA inhibition,"SH-SY5Y, 0.556 µM",48%
same,target mRNA inhibition,"SH-SY5Y, 1.667 µM",69%
same,target mRNA inhibition,"SH-SY5Y, 5 µM",77%
same,target mRNA inhibition,"SH-SY5Y, 15 µM",87%
"TTAAAGTGAGGACCTGC (sugars e3 k2 d7 k2 e3, PS)",target mRNA inhibition,"HepG2, 3 µM",14%
"TCTTCATCCTTTGGCCC (sugars e3 k2 d7 k2 e3, PS)",target mRNA inhibition,"HepG2, 3 µM",15%
"GATAGAGGATTAAAGTG (sugars e3 k2 d7 k2 e3, PS)",target mRNA inhibition,"HepG2, 3 µM",8%
"GGCCTCAGACTACATCC (sugars e2 k2 d8 k2 e3, PS)",target mRNA inhibition,"HepG2, 4 µM",70%
"CTTTTAATAGCCTCATAATA (sugars e5 d10 e5, PS)",target mRNA inhibition,"HepG2, 5 µM",0%
"GAAATTCTGACAAGTTT (sugars e3 k2 d7 k2 e3, PS)",target mRNA inhibition,"HepG2, 3 µM",14%
"TCAGGATACATTTCTACAGC (sugars e5 d10 e5, PS)",target mRNA inhibition,"HepG2, 0.1875 µM",13%
same,target mRNA inhibition,"HepG2, 0.75 µM",42%
same,target mRNA inhibition,"HepG2, 3 µM",75%
same,target mRNA inhibition,"HepG2, 5 µM",70%
same,target mRNA inhibition,"HepG2, 12 µM",92%
"GATGCCCTGCACTGGGCCGT (sugars e5 d10 e5, PS)",target mRNA inhibition,"HepG2, 4 µM",15%
"CTCGCCCACTCTGGCCCCAA (sugars e5 d10 e5, PS)",target mRNA inhibition,"HepG2, 4 µM",45%
"TCATTGAAACAGACATT (sugars e3 k2 d7 k2 e3, PS)",target mRNA inhibition,"HepG2, 3 µM",10%
"GTTTATTGGGCGATCCC (sugars e2 k2 d8 k2 e3, PS)",target mRNA inhibition,"HepG2, 4 µM",54%
"GCAGGATAACAGATGAG (sugars e2 k2 d8 k2 e3, PS)",target mRNA inhibition,"HepG2, 0.1875 µM",26%
same,target mRNA inhibition,"HepG2, 0.75 µM",67%
same,target mRNA inhibition,"HepG2, 3 µM",84%
same,target mRNA inhibition,"HepG2, 4 µM",79%
same,target mRNA inhibition,"HepG2, 12 µM",93%
"GGATACATTTCTACAGC (sugars e4 d9 k2 e2, linkages s1 o3 s9 o1 s2)",target mRNA inhibition,"A431, 0.062 µM",0%
same,target mRNA inhibition,"A431, 0.185 µM",1%
same,target mRNA inhibition,"A431, 0.556 µM",13%
same,target mRNA inhibition,"A431, 1.667 µM",28%
same,target mRNA inhibition,"A431, 5 µM",42%
same,target mRNA inhibition,"A431, 15 µM",55%
same,target mRNA inhibition,"SH-SY5Y, 0.062 µM",10%
same,target mRNA inhibition,"SH-SY5Y, 0.185 µM",3%
same,target mRNA inhibition,"SH-SY5Y, 0.556 µM",23%
same,target mRNA inhibition,"SH-SY5Y, 1.667 µM",35%
same,target mRNA inhibition,"SH-SY5Y, 5 µM",77%
same,target mRNA inhibition,"SH-SY5Y, 15 µM",78%
"ATTACAGTGTTTAATGT (sugars e3 k2 d7 k2 e3, PS)",target mRNA inhibition,"HepG2, 3 µM",24%
"TAGAGGATTAAAGTGAG (sugars e3 k2 d7 k2 e3, PS)",target mRNA inhibition,"HepG2, 3 µM",21%
"AGACCTCCGCGCCTCGCCCA (sugars e5 d10 e5, PS)",target mRNA inhibition,"HepG2, 12 µM",84%
"TCTGACAAGTTTAATAC (sugars e3 k2 d7 k2 e3, PS)",target mRNA inhibition,"HepG2, 3 µM",0%
"AATAGCCTCATAATAAG (sugars e2 k2 d8 k2 e3, PS)",target mRNA inhibition,"HepG2, 5 µM",20%
"AGACATTTTAACTGAGT (sugars e2 k2 d9 k2 e2, PS)",target mRNA inhibition,"HepG2, 5 µM",53%
"ACAGTGTTTAATGTTTA (sugars e2 k2 d9 k2 e2, PS)",target mRNA inhibition,"HepG2, 0.1875 µM",40%
same,target mRNA inhibition,"HepG2, 0.75 µM",67%
same,target mRNA inhibition,"HepG2, 3 µM",86%
same,target mRNA inhibition,"HepG2, 4 µM",79%
same,target mRNA inhibition,"HepG2, 5 µM",84%
same,target mRNA inhibition,"HepG2, 12 µM",83% and 88%
"CCACCTTTGCCCAAGTC (sugars e3 k2 d7 k2 e3, PS)",target mRNA inhibition,"HepG2, 3 µM",91%
"TTCCCCACACCTTCACTG (sugars e5 d8 e5, linkages s1 o3 s9 o2 s2)",target mRNA inhibition,"A431, 0.12 µM",2%
same,target mRNA inhibition,"A431, 0.6 µM",0%
same,target mRNA inhibition,"A431, 3 µM",0%
same,target mRNA inhibition,"A431, 15 µM",9%
same,target mRNA inhibition,"HepG2, 0.222 µM",7%
same,target mRNA inhibition,"HepG2, 0.667 µM",4%
same,target mRNA inhibition,"HepG2, 2 µM",42%
same,target mRNA inhibition,"HepG2, 6 µM",17%
"TTTTATTCACAGGCTTG (sugars e2 k2 d8 k2 e3, PS)",target mRNA inhibition,"HepG2, 5 µM",43%
"CCGTGTTTTCTGGATAGAGG (sugars e5 d10 e5, PS)",target mRNA inhibition,"HepG2, 5 µM",44% and 37%
"CTAGGCCACGCCGAGGTCCT (sugars e5 d10 e5, PS)",target mRNA inhibition,"HepG2, 4 µM",39%
"TTAAGTCTGGCAAAATA (sugars e2 k2 d9 k2 e2, PS)",target mRNA inhibition,"HepG2, 5 µM",42%
"GTTTAATGTTTATCAGG (sugars e2 k2 d9 k2 e2, PS)",target mRNA inhibition,"HepG2, 0.1875 µM",67%
same,target mRNA inhibition,"HepG2, 0.75 µM",84%
same,target mRNA inhibition,"HepG2, 3 µM",94%
same,target mRNA inhibition,"HepG2, 5 µM",92%
same,target mRNA inhibition,"HepG2, 12 µM",96%
"AATACCCATCTGTGATTTAA (sugars e5 d10 e5, PS)",target mRNA inhibition,"HepG2, 5 µM",0%
"CTGTGATTTAAGTCTGG (sugars e2 k2 d9 k2 e2, PS)",target mRNA inhibition,"HepG2, 5 µM",61%
"CCACACCTTCACTGGTC (sugars e3 k2 d7 k2 e3, PS)",target mRNA inhibition,"HepG2, 3 µM",36%
"TTACACTTTTAAGATTACAG (sugars e5 d10 e5, PS)",target mRNA inhibition,"HepG2, 5 µM",0%

# Source: the OligoGym collection
